Data: paper PMC9070039, “Synthesis and evaluation of antimicrobial activity, cytotoxic and pro-apoptotic effects of novel spiro-4H-pyran derivatives” (RSC Advances, 2019)
In brackets after ≈: the same amount, converted by molar mass.

Columns and labels:
[1] = system: S. aureus; experiment: Disk diffusion antibacterial test; assay type: cell-based, Staphylococcus aureus; conditions: there called agar dilution method
Experimental: (§1) Antibacterial effects of spiro[indeno[2,1-c]pyridazine-9,4′-pyran]-3′,4-dicarbonitrile derivatives 5a–j were evaluated in vitro by using disk diffusion method against Gram-positive (S. aureus) and Gram negative (E. coli). The diameter of inhibition zone correlates to the sensitivity of a bacterium to an antibacterial agent. […] E. coli was resistant against all compounds tested (Table 2). Tetracycline and DMSO were used as positive control and negative control respectively. Next, the active compounds were analysed using MIC assay to determine the lowest concentration for inhibition. […] It seems due to the difference in structure of bacterial cell wall (i.e., the presence of outer membrane with lipid, lipopolysaccharide, and lipoprotein content in Gram negative bacteria), E. coli was resistant against the related synthetic compounds.
(§2) Antibacterial activity of the prepared synthetic compounds against the Gram-negative bacteria (E. coli; ATCC: 15922) and the Gram-positive bacteria (S. aureus; PTCC: 1112, International no. ATCC6538P) were examined by disk diffusion assay. Bacterial cultures were obtained from Persian Type Culture Collection, Tehran, Iran (PTCC). Isolated pure colonies from fresh grown bacteria were transferred from the plates into sterile normal saline solution and it was vortexed to form bacterial homogenous suspensions. The turbidity was then adjusted to 0.5 McFarland standard units, and the suspensions were poured over Mueller–Hinton agar (MHA) plates. Sterile filter paper disks were placed over these plates. The sterile disks were impregnated with the tested compounds. Positive control (tetracycline) and negative control ([…]) were used. To determine MIC, the concentrations of tested substance were prepared within the range from 30–5 mM. Incubate in incubator at 37 °C in 24 h for bacteria (Table 2).

[2] = system: E. coli; experiment: Disk diffusion antibacterial test; assay type: cell-based, Escherichia coli; set-up: key: —: inactive at concentration 50 mM; conditions: disc diffusion test, concentration 50 mM
Experimental: as §1, §2

[3] = system: S. aureus; experiment: MIC determination; assay type: cell-based; conditions: Staphylococcus aureus; read-out: MICs (mM) S. aureus
Experimental: as §1, §2

[4] = system: A375 cells; experiment: MTT cytotoxicity assay; assay type: cell-based; conditions: Homo sapiens, A-375, 48 h
Experimental: (§3) At first, in order to compare anti-cancer properties, the synthesized compounds 5a–j were evaluated against A549 cells, MCF-7 cells, A375 cells, PC3 cells, LNCaP cells and HDF cells lines using the MTT colorimetric assay. The activity is expressed as 50% growth inhibitory concentration (IC50) values at 48 h. We used DMSO (1%) as negative control and Etoposide as positive control.
(§4) Human non-small-cell lung cancer A549 cells, human breast cancer MCF-7 cells, human malignant melanoma cells (A375), human prostate cancer cells (PC3 cells, LNCaP cells) and normal cells HDF (human dermal fibroblast) were received from Pasture Institute, Tehran, Iran. MCF-7 cells were grown in RPMI 1640 medium, A549 cells, A375 cells, PC3 cells, LNCaP cells and HDF cells were grown in DMEM medium. All media contain 10% fetal bovine serum (FBS), penicillin G, streptomycin 100 μg mL^−1 and 1% L-glutamine. The cells were cultured and incubated under humidified 5% CO2 atmosphere at 37 °C.
(§5) The effect of compounds treatment on the viability of cancer cell lines was measured by (3-(4,5-dimethylthiazol-2-yl)-2,5-diphenyl tetrazolium bromide or MTT) assay (MTT assay kit, Bio IDEA, CatNo: BI1017, Iran) based on the ability of live cells to cleave the tetrazolium ring to a molecule that absorb at […] as per the manufacturer's instructions.[33] Etoposide (was kindly provided by Dr A. Foroumadi, Tehran medical Science University, Iran) and dimethyl sulfoxide (or DMSO) was used as positive and negative controls, respectively.[34] Briefly, cells were plated in 96-well culture plates (5 × 10^3 cells per well). After 24 h incubation, the cells were treated with different concentrations of the compounds. After 48 h at 37 °C, the medium was removed and 100 μL of MTT reagent (1 mg mL^−1) was added to each well, and cells were further incubated at 37 °C for 4 h. The MTT solution was removed, 50 μL of DMSO was added to each well to dissolve formazan crystals, and the plates were gently shaken for 10 minutes, followed by reading with an ELISA plate reader (BiotekELx 800, USA). The 50% inhibition concentration (IC50) was defined as the concentration that inhibited cell proliferation by 50% when compared to DMSO treated cells (as negative control).

[5] = system: A549 cells; experiment: MTT cytotoxicity assay; assay type: cell-based; conditions: Homo sapiens, 48 h
Experimental: as §3, §4, §5

[6] = system: HDF cells; experiment: MTT cytotoxicity assay; assay type: cell-based; conditions: 48 h, normal cells (human dermal fibroblast)
Experimental: as §3, §4, §5

[7] = system: LNCaP cells; experiment: MTT cytotoxicity assay; assay type: cell-based; conditions: Homo sapiens, 48 h
Experimental: as §3, §4, §5

[8] = system: MCF-7 cells; experiment: MTT cytotoxicity assay; assay type: cell-based; conditions: Homo sapiens, MCF7, 48 h
Experimental: as §3, §4, §5

[9] = system: PC3 cells; experiment: MTT cytotoxicity assay; assay type: cell-based; conditions: Homo sapiens, PC-3, 48 h
Experimental: as §3, §4, §5

[10] = system: A549 cells; experiment: DAPI staining assay; assay type: cell-based, human; conditions: 24 h treatment
Experimental: as §3
DAPI staining assay was used to determine chromatin changes. A549 cells were seeded in six well plates (5 × 10^4 cells per well) containing 12 mm cover-slips and subsequently treated for compound 5a (sample or treated cells) and DMSO (control or untreated cells) for 24 h. Cells then were fixed with 3.7% paraformaldehyde, permeabilized in 0.5% (w/v) Triton X-100, 1% BSA (w/v) for 5 min, washed in PBS, and stained with DAPI (Sigma-Aldrich, USA). All images were taken by an inverted fluorescent microscope (Nikon Eclipse Ti-E).

[11] = system: Bax; experiment: Real-time RT-PCR, Bax mRNA expression; assay type: cell-based, human; conditions: A549 cells, 40 μM, 48 h
Source text: (§6) Finally, we confirmed that apoptosis mediated by mitochondria induces in A549 cells. It is well known that the anti-apoptotic Bcl-2 protein is localized on the outer mitochondrial membranes and antagonizes the action of pro-apoptotic Bax. The balance between these two proteins prevents translocation of cytochrome c from the mitochondria to cytoplasm and determines the apoptosis resistance. Down-regulation of Bcl-2 and/or up-regulation of Bax disturb this balance and leads to apoptosis (Fig. 3A).
(§7) For quantitative real-time RT-PCR analysis, after 48 h of treatment with 40 μM of related drug (5a), A549 cells was lysed and the total RNA was extracted using 500 μL of Trizol® reagent according to the protocol provided by the manufacturer (Invitrogen Life Technologies, Carlsbad, CA, USA) followed by reverse transcription into cDNA according to manufactures protocol (ReveretAid M-Mulv reverse transcriptase kit, Thermo Fisher Scientific, MA, USA). Real-time RT-PCR was then performed to amplify cDNA using SYBR green dye universal master mix (Bioron GmbH, Germany), on a Light Cycler 480 (Roche) using the primers for GAPDH-F: 5′-CAA GGT CAT CCA TGA CAA CTTTG-3′, R:5′-[…]-3′; Bax-F:5′-[…]-3′, R: 5′-[…]-3′and Bcl-2-F: 5′-[…]-3′, R: 5′- […]-3′for forty cycles. Data represent averaged copy number normalized to the GAPDH housekeeping gene. Primer synthesis was done by Pishgam Biotech Co. Tehran, Iran. […]

[12] = system: Bcl-2; experiment: Real-time RT-PCR, Bcl-2 mRNA expression; assay type: cell-based, human; conditions: A549 cells, 40 μM, 48 h
Source text: as §6, §7

In the case of `Cn1c2c(c(=O)n(C)c1=O)C1(C(C#N)=C(N)O2)c2ccccc2-c2c1n[nH]c(=O)c2C#N` (stereo not drawn) [5a, 7′-Amino-1′,3′-dimethyl-2′,3,4′-trioxo-1′,2,2′,3,3′,4′-hexahydrospiro[indeno[2,1-c]pyridazine-9,5′-pyrano[2,3-d]pyrimidine]-4,6′-dicarbonitrile], the “Sensitivity of S. aureus to compound” value [1] is reported as “sensitive”, the “Inhibition zone (mm) E. coli” value [2] is reported as “—” and the MIC [3] is reported as 5 mM (≈ 2140 µg/mL). For the same molecule, the IC50 [4] was 70.72 ± 0.064 µM, the IC50 [5] was 40 ± 0.007 µM and the IC50 [6] was greater than 100 µM. For the same molecule, the IC50 [7] was 32.15 ± 0.046 µM, the IC50 [8] was greater than 100 µM and the IC50 [9] was greater than 100 µM. The “Chromatin changes / cell death by DAPI staining” value [10] was “induced cell death in A549 cells”, the “Relative expression of Bax mRNA” value [11] was “up-regulated expression” and the “Relative expression of Bcl-2 mRNA” value [12] was “down-regulation expression”.
